From patent US20230212174A1, “PYRROLO[2,1-F][1,2,4]TRIAZINE DERIVATIVE AND USE THEREOF” (Tencent Technology (Shenzhen) Company Limited, priority 2021, published 2023)

target: T1, TTK (Homo sapiens, UniProt P33981); test: TTK inhibitory activity (kinase reaction, Fluorescein-PolyGT substrate, antibody/EDTA stop, Envision read); assay type: biochemical; conditions: 0.5 nM TTK, 7 uM ATP, 0.2 uM Fluorescein-PolyGT, 28° C., 30 min
T1 sequence (P33981 1-857): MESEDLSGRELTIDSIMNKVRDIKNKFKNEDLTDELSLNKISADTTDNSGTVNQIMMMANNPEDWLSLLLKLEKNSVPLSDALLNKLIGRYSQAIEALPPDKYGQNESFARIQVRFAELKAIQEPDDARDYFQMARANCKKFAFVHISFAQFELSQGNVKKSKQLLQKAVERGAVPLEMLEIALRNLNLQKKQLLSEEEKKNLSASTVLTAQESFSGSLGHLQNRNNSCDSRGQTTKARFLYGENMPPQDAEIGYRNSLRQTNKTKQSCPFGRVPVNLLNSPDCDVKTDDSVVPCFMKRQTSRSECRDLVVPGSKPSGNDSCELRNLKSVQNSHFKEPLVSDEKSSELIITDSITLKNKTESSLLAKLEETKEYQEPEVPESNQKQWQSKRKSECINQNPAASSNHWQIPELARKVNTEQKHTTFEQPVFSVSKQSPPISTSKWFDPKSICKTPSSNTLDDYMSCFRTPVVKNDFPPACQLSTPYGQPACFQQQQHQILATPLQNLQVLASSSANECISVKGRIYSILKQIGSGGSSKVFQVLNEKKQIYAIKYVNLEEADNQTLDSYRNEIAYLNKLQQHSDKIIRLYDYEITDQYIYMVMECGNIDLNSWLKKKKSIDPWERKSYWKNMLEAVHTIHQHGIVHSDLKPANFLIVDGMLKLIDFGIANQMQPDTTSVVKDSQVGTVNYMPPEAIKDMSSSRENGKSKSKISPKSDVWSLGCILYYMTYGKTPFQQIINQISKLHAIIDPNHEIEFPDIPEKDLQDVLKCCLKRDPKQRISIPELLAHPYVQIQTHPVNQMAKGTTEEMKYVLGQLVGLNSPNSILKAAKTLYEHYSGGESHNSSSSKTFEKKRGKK
Protocol: The experiment aims to detect the inhibitory activity of the compound of the present disclosure on TTK in vitro.
The TTK kinase reaction system was 10 μL, including 0.5 nM TTK, test compound over a concentration gradient, 10 mM MgCl2, 2 mM DTT, 7 uM ATP, 0.2 uM Fluorescein-PolyGT (Fluorescein-Poly Glu:Tyr (4:1)), 0.01% Triton X-100, 0.01% BSA, and 50 mM HEPES pH 7.5. The enzyme and the test compound of the present disclosure were added into a 384-well plate, and then a substrate and ATP were added. Then the system was incubated at a constant temperature of 28° C. 30 min after the reaction, 10 μL of a mixed solution of a corresponding antibody and EDTA was added to terminate the reaction, and incubated for 60 min at a constant temperature of 28° C. The data was read on Envision instrument. A curve was plotted with the Log concentration of the inhibitor as the X axis and the inhibition rate as the Y axis, and IC50 was calculated by Y=Bottom+(Top-Bottom)/(1+(IC50/X)^HillSlope).

SMILES	IC50 [nM]
CCOc1cc(-c2nncn2C)ccc1Nc1ncc2ccc(C3CCCC3)n2n1 [Compound 13]	7.1
CCOc1cc(-c2nncn2C)ccc1Nc1ncc2ccc(C3=CCCC3)n2n1 [Compound 12]	8.7
CCOc1cc(-c2nncn2C)ccc1Nc1nc(NCC(C)(C)C)c2cccn2n1 [Compound 1]	27
CCOc1cc(-c2nncn2C)ccc1Nc1nc(NC2CCCC2)c2cccn2n1 [Compound 3]	8.9

Molecules with a lower IC50, results first:

IC50 [nM]	SMILES
2.1	CCOc1cc(-c2nncn2C)ccc1Nc1ncc2ccc(-c3cnn(C)c3)n2n1 [Compound 18]
5.5	CCOc1cc(-c2nncn2C)ccc1Nc1nc(NC2CCCCC2)c2c(Cl)ccn2n1 [Compound 10]
6.3	CCOc1cc(-c2nncn2C)ccc1Nc1ncc2ccc(C3CCOCC3)n2n1 [Compound 17]
4.2	CCOc1cc(-c2nncn2C)ccc1Nc1ncc2ccc(C3CCCCC3)n2n1 [Compound 15]
4	CCOc1cc(-c2nncn2C)ccc1Nc1nc(NC2CCOCC2)c2cccn2n1 [Compound 4]
